The source made the active and inactive calls. No cut-off for these calls is given here.
How the values were obtained:
[1] = biological target: Aurora kinase B (Homo sapiens) (UniProt Q96GD4); assay: Disruption of mitotic localization of AURKB in human RPE-MYC H2B-GFP cells assessed as induction of mitotic arrest measured after 24 hrs by fluorescence high content cell imaging analysis; format: cell-based
[2] = biological target: Aurora kinase B (Homo sapiens) (UniProt Q96GD4); assay: Disruption of mitotic localization of AURKB in human RPE-MYC H2B-GFP cells assessed as induction of polyploidy by fluorescence high content cell imaging analysis; format: cell-based
[3] = biological target: Aurora kinase B (Homo sapiens) (UniProt Q96GD4); assay: Disruption of mitotic localization of AURKB in human RPE-MYC cells expressing BCL2 assessed as mitotic index at 40 nM measured after 6 hrs by fluorescence high content cell imaging analysis (reference value: 5.3%); format: cell-based
[4] = biological target: Aurora kinase B (Homo sapiens) (UniProt Q96GD4); assay: Disruption of kinetochore localization of AURKB during prophase of human RPE-MYC cells expressing BCL2 at 40 nM measured after 6 hrs by immunofluorescence staining analysis; format: cell-based
[5] = biological target: Aurora kinase B (Homo sapiens) (UniProt Q96GD4); assay: Disruption of kinetochore localization of AURKB during anaphase of human RPE-MYC cells expressing BCL2 at 40 nM measured after 6 hrs by immunofluorescence staining analysis; format: cell-based
[6] = biological target: Aurora kinase B (Homo sapiens) (UniProt Q96GD4); assay: Disruption of mitotic localization of AURKB in human RPE-MYC cells expressing BCL2 assessed as disruption of PLK1 localization at centrosome during prophase at 40 nM measured after 6 hrs by immunofluorescence staining analysis; format: cell-based
[7] = tested on: A549; assay: Cytotoxicity against human A549 cells assessed as cell growth inhibition incubated for 3 days by MTT assay; format: functional, cell-based; details: time 3.0 day
[8] = tested on: SW480; assay: Cytotoxicity against human SW480 cells assessed as cell growth inhibition incubated for 3 days by MTT assay; format: functional, cell-based; details: time 3.0 day
[9] = tested on: MDA-MB-231; assay: Cytotoxicity against human MDA-MB-231 cells assessed as cell growth inhibition incubated for 3 days by MTT assay; format: functional, cell-based; details: time 3.0 day
[10] = tested on: HeLa; assay: Cytotoxicity against human HeLa cells assessed as cell growth inhibition incubated for 3 days by MTT assay; format: functional, cell-based; details: time 3.0 day
[11] = tested on: NCI-N87; assay: Cytotoxicity against human NCI-N87 cells assessed as cell growth inhibition incubated for 3 days by MTT assay; format: functional, cell-based; details: time 3.0 day
[12] = tested on: Tyrosine-protein kinase ABL1 (Homo sapiens), P00519 [H396P]; assay: Inhibition of human recombinant ABL1 H396P mutant at 2 uM by KINOMEscan assay
[13] = tested on: Tyrosine-protein kinase ABL1 (Homo sapiens), P00519 [F317L]; assay: Inhibition of human recombinant ABL1 F317L mutant at 2 uM by KINOMEscan assay
[14] = biological target: Discoidin domain-containing receptor 2 (Homo sapiens, UniProt Q16832); assay: Inhibition of DDR2 (unknown origin) assessed as inhibition of DDR2 interaction with DNA-bound ligand by qPCR analysis
[15] = biological target: Serine/threonine-protein kinase PLK1 (Homo sapiens) (UniProt P53350); assay: Inhibition of PLK1 (unknown origin) by bio-chip based analysis
[16] = biological target: Rho-associated protein kinase 1 (Homo sapiens) (UniProt Q13464); assay: Inhibition of ROCK1 (unknown origin) by bio-chip based analysis
[17] = biological target: Rho-associated protein kinase 2 (Homo sapiens) (UniProt O75116); assay: Inhibition of ROCK2 (unknown origin) by bio-chip based analysis
[18] = Drug degradation in HCl buffer at pH 2.2 measured after 72 hrs by LC-MS analysis; format: physicochemical; details: read-out: Drug degradation
[19] = Kinetic solubility of the compound in HCl buffer at pH 2.2 measured after 72 hrs by LC-MS analysis; format: physicochemical; details: read-out: Kinetic_solubility
[20] = Tmax in Wistar rat at 20 mg/kg, po measured for 24 hrs by LC-MS/MS analysis; format: ADME, organism-based; details: in vivo
[21] = Apparent volume of distribution in Wistar rat at 20 mg/kg, po measured for 24 hrs by LC-MS/MS analysis; format: ADME, organism-based; details: in vivo
[22] = Clearance in Wistar rat at 20 mg/kg, po measured for 24 hrs by LC-MS/MS analysis; format: ADME, organism-based; details: in vivo
[23] = MRT (0 to infinity) in Wistar rat at 20 mg/kg, po by LC-MS/MS analysis; format: ADME, organism-based; details: in vivo
[24] = Oral bioavailability in Wistar rat at 20 mg/kg measured for 24 hrs by LC-MS/MS analysis; format: ADME, organism-based; details: in vivo
[25] = Dose normalized AUC (0 to infinity) in Wistar rat at 2 mg/kg, iv by LC-MS/MS analysis; format: ADME, organism-based; details: in vivo
[26] = Volume of distribution at steady state in Wistar rat at 2 mg/kg, iv measured after 24 hrs by LC-MS/MS analysis; format: ADME, organism-based; details: in vivo, read-out: Vdss
[27] = Clearance in Wistar rat at 2 mg/kg, iv measured after 24 hrs by LC-MS/MS analysis; format: ADME, organism-based; details: in vivo
[28] = Toxicity in BALB/c nude mouse xenografted with human HCT-116 cells assessed as animal's well being at 50 mg/kg, po bid for 7 days; format: organism-based; details: in vivo, 168 h, time 7 day
[29] = Ratio of drug uptake in tumor of BALB/c nude mouse xenografted with human HCT-116 cells at 50 mg/kg, po bid for 7 days and measured at 6 hrs post-last drug administration to MEC for disruption of mitotic localization of AURKB in human RPE-MYC H2B-GFP cells assessed as induction of mitotic arrest measured after 24 hrs
[30] = biological target: Aurora kinase B (Homo sapiens) (UniProt Q96GD4); assay: Disruption of mitotic localization of AURKB in human RPE-MYC H2B-GFP cells assessed as induction of polyploidy by fluorescence high content cell imaging analysis relative to control; format: cell-based
[31] = biological target: T1, Aurora kinase A (Homo sapiens) (UniProt O14965); assay: Inhibition of AURKA in human RPE-MYC H2B-GFP cells assessed as inhibition of autophosphorylation of AURKA at Thr288 residue at 8XMEC measured after 6 hrs by immunofluorescence staining analysis; format: cell-based
T1 sequence (whole entry): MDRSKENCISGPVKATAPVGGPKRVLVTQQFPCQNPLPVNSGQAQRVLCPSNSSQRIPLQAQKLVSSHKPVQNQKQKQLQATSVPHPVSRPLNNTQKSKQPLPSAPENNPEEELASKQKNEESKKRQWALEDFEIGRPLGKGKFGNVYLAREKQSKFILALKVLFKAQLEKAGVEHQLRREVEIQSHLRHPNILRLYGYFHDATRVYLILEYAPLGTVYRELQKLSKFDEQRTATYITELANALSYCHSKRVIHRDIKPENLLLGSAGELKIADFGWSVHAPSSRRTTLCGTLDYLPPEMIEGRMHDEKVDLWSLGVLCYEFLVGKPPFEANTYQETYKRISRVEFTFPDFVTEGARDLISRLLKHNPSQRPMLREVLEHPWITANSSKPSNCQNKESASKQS

[32] = biological target: Aurora kinase B (Homo sapiens) (UniProt Q96GD4); assay: Inhibition of AURKB in human RPE-MYC H2B-GFP cells assessed as inhibition of histone H3 phosphorylation at Ser10 residue at 8XMEC measured after 6 hrs by immunofluorescence staining analysis; format: cell-based

Sequence of Aurora kinase B (Homo sapiens) (Q96GD4 whole entry): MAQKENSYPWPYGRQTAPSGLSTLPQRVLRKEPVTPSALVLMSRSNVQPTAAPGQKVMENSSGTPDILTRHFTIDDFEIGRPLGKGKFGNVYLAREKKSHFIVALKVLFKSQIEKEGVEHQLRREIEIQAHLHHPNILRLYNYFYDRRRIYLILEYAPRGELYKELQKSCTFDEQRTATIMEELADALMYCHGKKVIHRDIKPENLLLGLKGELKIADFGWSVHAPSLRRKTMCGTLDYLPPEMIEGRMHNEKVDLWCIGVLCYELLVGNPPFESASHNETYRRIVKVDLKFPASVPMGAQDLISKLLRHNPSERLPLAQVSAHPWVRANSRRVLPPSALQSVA
Sequence of Rho-associated protein kinase 1 (Homo sapiens) (Q13464 2-1354 limits assumed): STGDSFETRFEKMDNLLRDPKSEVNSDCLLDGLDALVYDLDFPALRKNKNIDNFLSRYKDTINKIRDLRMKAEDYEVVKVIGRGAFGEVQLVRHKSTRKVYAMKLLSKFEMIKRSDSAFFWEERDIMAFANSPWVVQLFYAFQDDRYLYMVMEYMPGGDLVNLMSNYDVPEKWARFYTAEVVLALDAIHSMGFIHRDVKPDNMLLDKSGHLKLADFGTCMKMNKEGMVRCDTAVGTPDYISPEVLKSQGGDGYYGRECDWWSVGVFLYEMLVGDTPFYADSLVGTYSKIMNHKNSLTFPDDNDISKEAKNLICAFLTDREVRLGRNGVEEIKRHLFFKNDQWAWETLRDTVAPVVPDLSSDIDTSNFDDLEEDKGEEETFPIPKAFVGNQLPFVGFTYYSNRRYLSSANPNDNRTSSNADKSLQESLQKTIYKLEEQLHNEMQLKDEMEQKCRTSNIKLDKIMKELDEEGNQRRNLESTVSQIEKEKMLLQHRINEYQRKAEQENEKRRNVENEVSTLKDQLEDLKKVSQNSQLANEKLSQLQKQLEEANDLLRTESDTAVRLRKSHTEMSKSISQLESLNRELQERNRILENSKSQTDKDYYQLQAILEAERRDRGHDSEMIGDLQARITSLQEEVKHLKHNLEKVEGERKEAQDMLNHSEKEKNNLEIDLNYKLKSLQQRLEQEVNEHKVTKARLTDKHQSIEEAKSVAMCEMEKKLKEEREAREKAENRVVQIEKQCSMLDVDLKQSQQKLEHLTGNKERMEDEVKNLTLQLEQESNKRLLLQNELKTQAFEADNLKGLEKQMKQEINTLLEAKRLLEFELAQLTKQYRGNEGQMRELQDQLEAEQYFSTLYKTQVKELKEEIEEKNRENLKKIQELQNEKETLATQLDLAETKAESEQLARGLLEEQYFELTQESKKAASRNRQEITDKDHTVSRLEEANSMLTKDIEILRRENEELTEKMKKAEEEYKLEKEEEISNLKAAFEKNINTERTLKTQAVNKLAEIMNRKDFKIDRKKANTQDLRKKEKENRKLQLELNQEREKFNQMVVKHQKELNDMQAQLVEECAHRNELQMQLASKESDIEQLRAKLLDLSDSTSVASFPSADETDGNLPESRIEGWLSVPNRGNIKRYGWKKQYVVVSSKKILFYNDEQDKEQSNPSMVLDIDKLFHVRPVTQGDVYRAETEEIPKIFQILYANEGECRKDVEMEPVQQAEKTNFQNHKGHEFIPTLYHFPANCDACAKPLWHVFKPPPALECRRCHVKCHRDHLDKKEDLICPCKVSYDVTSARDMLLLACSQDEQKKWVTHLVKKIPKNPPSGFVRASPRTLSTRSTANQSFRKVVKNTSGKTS
Sequence of Discoidin domain-containing receptor 2 (Q16832 whole entry, the tested form may be a part): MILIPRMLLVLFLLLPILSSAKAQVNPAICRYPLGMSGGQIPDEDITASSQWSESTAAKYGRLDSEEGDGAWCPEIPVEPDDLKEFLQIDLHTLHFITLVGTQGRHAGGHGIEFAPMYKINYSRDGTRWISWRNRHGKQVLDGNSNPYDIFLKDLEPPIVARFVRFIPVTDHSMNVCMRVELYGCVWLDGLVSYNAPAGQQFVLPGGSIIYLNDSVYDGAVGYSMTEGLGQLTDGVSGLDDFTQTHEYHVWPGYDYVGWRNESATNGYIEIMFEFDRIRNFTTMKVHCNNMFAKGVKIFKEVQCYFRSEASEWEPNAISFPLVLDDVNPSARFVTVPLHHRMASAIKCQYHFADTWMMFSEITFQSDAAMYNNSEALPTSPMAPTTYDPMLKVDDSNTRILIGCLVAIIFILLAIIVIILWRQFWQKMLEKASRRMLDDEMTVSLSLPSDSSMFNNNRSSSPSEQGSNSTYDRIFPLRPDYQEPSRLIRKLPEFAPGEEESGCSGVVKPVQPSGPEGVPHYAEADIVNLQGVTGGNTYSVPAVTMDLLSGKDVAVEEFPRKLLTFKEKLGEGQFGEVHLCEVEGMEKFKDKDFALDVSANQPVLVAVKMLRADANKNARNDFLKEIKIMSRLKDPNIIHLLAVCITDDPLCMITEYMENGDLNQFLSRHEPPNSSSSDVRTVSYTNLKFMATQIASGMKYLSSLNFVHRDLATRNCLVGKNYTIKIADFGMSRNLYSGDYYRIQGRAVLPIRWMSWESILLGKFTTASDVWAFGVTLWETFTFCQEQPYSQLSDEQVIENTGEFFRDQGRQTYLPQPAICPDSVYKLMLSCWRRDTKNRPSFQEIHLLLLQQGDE
Sequence of Rho-associated protein kinase 2 (Homo sapiens) (O75116 whole entry, looked up): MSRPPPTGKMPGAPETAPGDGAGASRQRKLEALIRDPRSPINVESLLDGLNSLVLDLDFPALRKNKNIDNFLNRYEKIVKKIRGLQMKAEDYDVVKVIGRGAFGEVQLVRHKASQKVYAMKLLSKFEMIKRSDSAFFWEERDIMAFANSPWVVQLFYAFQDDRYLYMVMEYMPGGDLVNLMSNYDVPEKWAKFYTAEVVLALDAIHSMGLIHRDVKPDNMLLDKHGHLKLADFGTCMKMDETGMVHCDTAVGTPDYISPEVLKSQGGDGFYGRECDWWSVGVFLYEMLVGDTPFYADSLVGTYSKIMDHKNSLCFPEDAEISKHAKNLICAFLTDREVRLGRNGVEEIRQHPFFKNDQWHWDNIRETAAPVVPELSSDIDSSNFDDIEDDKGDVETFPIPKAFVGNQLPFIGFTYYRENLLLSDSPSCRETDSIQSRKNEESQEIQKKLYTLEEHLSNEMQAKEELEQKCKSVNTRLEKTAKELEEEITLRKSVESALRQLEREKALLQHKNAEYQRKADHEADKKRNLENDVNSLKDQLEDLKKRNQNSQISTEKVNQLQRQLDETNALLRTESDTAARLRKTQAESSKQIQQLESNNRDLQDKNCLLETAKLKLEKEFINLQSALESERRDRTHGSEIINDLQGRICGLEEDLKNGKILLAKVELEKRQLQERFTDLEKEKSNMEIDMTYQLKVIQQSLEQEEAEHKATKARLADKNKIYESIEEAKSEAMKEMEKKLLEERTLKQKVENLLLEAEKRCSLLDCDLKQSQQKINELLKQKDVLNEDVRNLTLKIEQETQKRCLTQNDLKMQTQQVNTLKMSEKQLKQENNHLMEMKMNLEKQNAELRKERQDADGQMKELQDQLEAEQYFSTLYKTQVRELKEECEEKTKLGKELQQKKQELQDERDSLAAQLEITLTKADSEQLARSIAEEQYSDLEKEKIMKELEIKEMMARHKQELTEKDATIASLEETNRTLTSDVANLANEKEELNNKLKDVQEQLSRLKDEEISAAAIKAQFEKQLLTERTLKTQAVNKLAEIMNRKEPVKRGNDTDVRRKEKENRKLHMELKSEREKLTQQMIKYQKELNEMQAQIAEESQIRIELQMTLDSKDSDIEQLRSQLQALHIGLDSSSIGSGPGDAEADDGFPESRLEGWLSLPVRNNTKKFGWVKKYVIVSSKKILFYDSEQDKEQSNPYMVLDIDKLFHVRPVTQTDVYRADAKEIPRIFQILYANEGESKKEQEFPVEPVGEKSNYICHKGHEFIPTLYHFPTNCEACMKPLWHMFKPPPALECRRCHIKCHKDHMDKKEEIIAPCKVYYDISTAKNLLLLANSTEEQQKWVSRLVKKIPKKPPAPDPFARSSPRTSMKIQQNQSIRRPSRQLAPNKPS
Sequence of Serine/threonine-protein kinase PLK1 (Homo sapiens) (P53350 whole entry): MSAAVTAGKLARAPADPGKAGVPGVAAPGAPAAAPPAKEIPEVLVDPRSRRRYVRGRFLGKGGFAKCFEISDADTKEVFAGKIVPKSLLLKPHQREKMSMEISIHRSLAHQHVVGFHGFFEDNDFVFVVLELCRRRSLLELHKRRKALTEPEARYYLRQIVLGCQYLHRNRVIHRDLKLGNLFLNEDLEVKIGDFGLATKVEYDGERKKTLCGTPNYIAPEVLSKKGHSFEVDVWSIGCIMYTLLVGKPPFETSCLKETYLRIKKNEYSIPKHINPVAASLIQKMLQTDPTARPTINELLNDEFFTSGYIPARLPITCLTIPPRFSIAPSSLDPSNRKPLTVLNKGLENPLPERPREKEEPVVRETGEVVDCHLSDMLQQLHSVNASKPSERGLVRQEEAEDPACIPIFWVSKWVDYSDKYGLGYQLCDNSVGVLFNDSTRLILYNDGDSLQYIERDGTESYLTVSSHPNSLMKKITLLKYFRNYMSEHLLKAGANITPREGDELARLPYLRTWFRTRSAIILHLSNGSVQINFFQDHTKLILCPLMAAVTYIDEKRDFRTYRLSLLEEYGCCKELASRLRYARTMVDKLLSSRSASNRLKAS

- MEC [1]: 0.01 µM
- MEC [2]: 0.01 µM
- Activity [3]: 15.3%
- Activity [4]: inactive
- Activity [5]: Active
- Activity [6]: inactive
- inhibition [12]: Active
- inhibition [13]: Active
- IC50 [14]: 225 nM
- inhibition [15]: inactive
- inhibition [16]: inactive
- inhibition [17]: inactive
- degraded at 72 h [18]: 0%
- solubility kinetic at 72 h [19]: > 190 µM
- Tmax [20]: 0.5 h
- Vz [21]: 15.41 L/kg
- CL/F [22]: 54.7 mL/min/kg
- MRT inf [23]: 2.83 h
- bioavailability [24]: 27.6%
- AUC/dose [25]: 517.74 ng·h/mL/mg/kg
- Vd [26]: 3.7 L/kg
- clearance [27]: 29.3 mL/min/kg
- Activity [30]: 100%
- inhibition [31]: < 40%
- inhibition [32]: < 40%
Compound: COc1cc(NC(C)=O)cc(Oc2ccnc3ccc(OC)cc23)c1
- Activity [7]: Active
- Activity [8]: Active
- Activity [9]: Active
- Activity [10]: Active
- Activity [11]: Active
- Activity [28]: Non-Toxic
- Ratio [29]: 70

— ChEMBL document CHEMBL5241130, “Integrating a phenotypic screening with a structural simplification strategy to identify 4-phenoxy-quinoline derivatives to potently disrupt the mitotic localization of Aurora kinase B” (Bioorg Med Chem, 2023)
